Data set [1] deals with Adult male cynomolgus monkeys. Description: Acute airway inflammation in the atopic primate (A. suum antigen challenge, bronchoalveolar lavage cell counts). It counts as in vivo, Macaca fascicularis. Particulars: p.o., 2 hours prior to A. suum antigen challenge; lavage at 24 hour after challenge; relative to vehicle treated control animals. On the procedure:
Acute airway inflammation in the atopic primate.
Airway inflammation in the monkey was determined using a modification of the protocol described by Turner et al. (Turner et al., 1994). Adult male cynomolgus monkeys (Macaca fascicularis, Hazelton Labs, Denver, Pa.) weighing between 3.6-5.8 kg were used in these studies.
On the day of each experiment the animals were anesthetized with ketamine hydrochloride, 12 mg/kg, and xylazine, 0.5 mg/kg, intubated with a cuffed endotracheal tube (3 mm, Mallinckrodt Medical, St. Louis, Mo.), then seated in an upright position in a specially designed Plexiglass chair (Plas-Labs, Lansing, Mich.). The endotracheal tube was connected to a heated Fleisch pneumotachograph. Airflow was measured via a Validyn differential pressure transducer (DP 45-24) that was attached to the pneumotachograph. Transpulmonary pressure was measured via a second Validyne transducer (DP 45-24) connected between a sidearm of the tracheal cannula and a 18-gauge intrapleural needle inserted in the intercostal space located below the left nipple. […]
Airway inflammation was induced by exposing the animal to an aerosol of A. Suum extract for 60 sec. […] Airway inflammation was assessed by inserting a pediatric bronchoscope into the airway lumen down to about the 4 or 5th generation bronchi and gently lavaging with 3 ×2 ml aliquots of sterile Hanks Balanced Salt Solution. […]

SMILES strings stand for the structures.

Turning to `Cc1cccc(Cl)c1C(=O)N[C@H](CO)Cc1ccc(NC(=O)c2c(Cl)cccc2Cl)cc1` [Example 1, 4-[[(2,6-dichlorophenyl)carbonyl]amino]-N-[(2-chloro-6-methylphenyl)carbonyl]-L-phenylalaninol], the melting point was 198 to 200 °C. Moreover, in data set [1], the “number of inflammatory cells present in the lavage fluid” value is listed as “significant decrease” and the “percent of inflammatory cells present in the lavage fluid” value is reported as “significant decrease”.

In general, melting point refers to the temperature of the solid-liquid transition.

The record behind these values is US6420600B1, “Phenylalaninol derivatives” (Hoffman-La Roche Inc., priority 1999, dated 2002).
